# Experimental data published in US11352349B2, “Type II topoisomerase inhibitors and methods of making and using thereof” (Ohio State Innovation Foundation, priority 2017, dated 2022).
# Test system: S. aureus ATCC 29213
# Experiment: MIC by broth microdilution (CLSI), quality control strain S. aureus ATCC 29213
# Format: cell-based, Staphylococcus aureus
# Details: S. aureus ATCC 29213; multiple values when multiple MIC assays were conducted
# Procedure: Minimum inhibitory concentrations were determined using the quality control strain S. aureus ATCC 29213 (Table 1) by the broth microdilution method according to guidelines of the Clinical and Laboratory Standards Institute (CLSI) (Cockerill, F. R.; et al., 2012, Methods for dilution antimicrobial susceptibility tests for bacteria that grow aerobically; approved standard-ninth edition. MA07-A9. Clinical and Laboratory Standard Institute, Wayne, Pa.). […] Published quality control ranges for gepotidacin and ciprofloxacin were used to validate each assay. MICs for selected compounds were also determined using a USA 300 strain of MRSA (Hidron, et al., Lancet Infect. Dis. 2009, 9:384-392). Vancomycin was used as an additional control.
row,Structure (SMILES),MIC 29213 [µg/mL]
1,"COc1ccc2nccc(CC[C@H]3OC[C@H](NC(=O)c4ccccc4)CO3)c2c1 [AB-0075, N-(2-(2-(6-methoxyquinolin-4-yl)ethyl)-trans-1,3-dioxan-5-yl)benzamide]",32

# Same assay, conditions: Staphylococcus aureus, ATCC29213, S. aureus ATCC 29213; multiple values when multiple MIC assays were conducted
row,Structure (SMILES),MIC [µg/mL]
1,"COc1ccc2ncc(=O)n(CC(O)[C@H]3OC[C@H](NCc4ccc5c(n4)NC(=O)CO5)CO3)c2c1 (relative stereo) [AB-0078, 6-(((2-(1-hydroxy-2-(7-methoxy-2-oxoquinoxalin-1(2H)-yl)ethyl)-trans-1,3-dioxan-5-yl)amino)methyl)-2H-pyrido[3,2-b][1,4]oxazin-3(4H)-one]",4
2,"COc1ccc2ncc(=O)n(CC[C@H]3OC[C@H](NCc4cc5c(cn4)OCCO5)CO3)c2c1 [AB-0003, 1-(2-(5-(((2,3-dihydro-[1,4]dioxino[2,3-c]pyridin-7-yl)methyl)amino)-1,3-trans-dioxan-2-yl)ethyl)-7-methoxyquinoxalin-2(1H)-one]",8
3,"COc1ccc2ncc(=O)n(CC[C@H]3OC[C@H](NCc4cc5c(cn4)OCCC5)CO3)c2c1 [AB-0006, 1-(2-(5-(((3,4-dihydro-2H-pyrano[2,3-c]pyridin-6-yl)methyl)amino)-trans-1,3-dioxan-2-yl)ethyl)-7-methoxyquinoxalin-2(1H)-one]",8
4,"COc1ccc2ncc(=O)n(CC[C@H]3OC[C@H](NCc4ccc(Cl)c(Cl)c4)CO3)c2c1 [AB-0007, 1-(2-(5-((3,4-dichlorobenzyl)amino)-trans-1,3-dioxan-2-yl)ethyl)-7-methoxyquinoxalin-2(1H)-one]",4
5,"COc1ccc2nccc(/C=C/[C@H]3OC[C@H](NCc4ccc(Cl)c(Cl)c4)CO3)c2c1 [AB-0009, N-(3,4-dichlorobenzyl)2-((E)-2-(6-methoxyquinolin-4-yl)vinyl)-trans-1,3-dioxan-5-amine]",≤ 0.25
6,"COc1ccc2nccc(CC[C@H]3OC[C@H](NCc4cc(F)ccc4F)CO3)c2c1 [AB-0022, N-(2,5-difluorobenzyl)-2-(2-(6-methoxyquinolin-4-yl)ethyl)-trans-1,3-dioxan-5-amine]",64
7,"COc1ccc2nccc(CC[C@H]3OC[C@H](NCc4ccc(F)c(F)c4)CO3)c2c1 [AB-0024, N-(3,4-difluorobenzyl)-2-(2-(6-methoxyquinolin-4-yl)ethyl)-trans-1,3-dioxan-5-amine]",64
8,"COc1ccc2nccc(CC[C@H]3OC[C@H](NCc4c(F)cccc4F)CO3)c2c1 [AB-0025, N-(2,6-difluorobenzyl)-2-(2-(6-methoxyquinolin-4-yl)ethyl)-trans-1,3-dioxan-5-amine]",> 64
9,"COc1ccc2nccc(CC[C@H]3OC[C@H](NCc4cccc(C#N)c4)CO3)c2c1 [AB-0026, 3-(((2-(2-(6-methoxyquinolin-4-yl)ethyl)-trans-1,3-dioxan-5-yl)amino)methyl)benzonitrile]",64
10,"COc1ccc2nccc(CC[C@H]3OC[C@H](NCc4ccccc4OC)CO3)c2c1 [AB-0027, N-(2-methoxybenzyl)-2-(2-(6-methoxyquinolin-4-yl)ethyl)-trans-1,3-dioxan-5-amine]",> 64
11,"COc1ccc2nccc(CC[C@H]3OC[C@H](NCc4cccc(F)c4F)CO3)c2c1 [AB-0028, N-(2,3-difluorobenzyl)-2-(2-(6-methoxyquinolin-4-yl)ethyl)-trans-1,3-dioxan-5-amine]",64
12,"COc1ccc2nccc(CC[C@H]3OC[C@H](NCc4cc(F)cc(F)c4)CO3)c2c1 [AB-0029, N-(3,5-difluorobenzyl)-2-(2-(6-methoxyquinolin-4-yl)ethyl)-trans-1,3-dioxan-5-amine]",16
13,"COc1ccc2nccc(CC[C@H]3OC[C@H](NCc4ccccc4C)CO3)c2c1 [AB-0032, 2-(2-(6-methoxyquinolin-4-yl)ethyl)-N-(2-methylbenzyl)-trans-1,3-dioxan-5-amine]",> 64
14,"COc1ccc2nccc(CC[C@H]3OC[C@H](NCc4ccccc4F)CO3)c2c1 [AB-0033, N-(2-fluorobenzyl)-2-(2-(6-methoxyquinolin-4-yl)ethyl)-trans-1,3-dioxan-5-amine]",> 64
15,"COc1cccc(CN[C@H]2CO[C@H](CCc3ccnc4ccc(OC)cc34)OC2)c1 [AB-0034, N-(3-methoxybenzyl)-2-(2-(6-methoxyquinolin-4-yl)ethyl)-trans-1,3-dioxan-5-amine]",16
16,"COc1ccc2nccc(CC[C@H]3OC[C@H](NCc4ccsc4)CO3)c2c1 [AB-0035, 2-(2-(6-methoxyquinolin-4-yl)ethyl)-N-(thiophen-3-ylmethyl)-trans-1,3-dioxan-5-amine]",> 64
17,"COc1ccc2nccc(CC[C@H]3OC[C@H](NCc4cccs4)CO3)c2c1 [AB-0036, 2-(2-(6-methoxyquinolin-4-yl)ethyl)-N-(thiophen-2-ylmethyl)-trans-1,3-dioxan-5-amine]",> 64
18,"COc1ccc2nccc(CC[C@H]3OC[C@H](NCc4cccc(Cl)c4)CO3)c2c1 [AB-0037, N-(3-chlorobenzyl)-2-(2-(6-methoxyquinolin-4-yl)ethyl)-trans-1,3-dioxan-5-amine]",32

row,Structure (SMILES),MIC [µg/mL]
1,"COc1ccc2nccc(CC[C@H]3OC[C@H](NCc4ccccc4)CO3)c2c1 [AB-0038, N-benzyl-2-(2-(6-methoxyquinolin-4-yl)ethyl)-trans-1,3-dioxan-5-amine]",> 64
2,"COc1ccc2nccc(CC[C@H]3OC[C@H](NCc4ccc(F)cc4F)CO3)c2c1 [AB-0039, N-(2,4-difluorobenzyl)-2-(2-(6-methoxyquinolin-4-yl)ethyl)-trans-1,3-dioxan-5-amine]",64
3,"COc1ccc2nccc(CC[C@H]3OC[C@H](NCc4cccc(OC)n4)CO3)c2c1 [AB-0040, N-((6-methoxypyridin-2-yl)methyl)-2-(2-(6-methoxyquinolin-4-yl)ethyl)-trans-1,3-dioxan-5-amine]",> 64
4,"COc1ccc2nccc(CC[C@H]3OC[C@H](NCc4ccc(F)cc4)CO3)c2c1 [AB-0041, N-(4-fluorobenzyl)-2-(2-(6-methoxyquinolin-4-yl)ethyl)-trans-1,3-dioxan-5-amine]",> 64
5,"COc1ccc2nccc(CC[C@H]3OC[C@H](NCc4cccc(C)c4)CO3)c2c1 [AB-0042, 2-(2-(6-methoxyquinolin-4-yl)ethyl)-N-(3-methylbenzyl)-trans-1,3-dioxan-5-amine]",16
6,"COc1ccc2nccc(CC[C@H]3OC[C@H](NCc4ccccc4Cl)CO3)c2c1 [AB-0043, N-(2-chlorobenzyl)-2-(2-(6-methoxyquinolin-4-yl)ethyl)-trans-1,3-dioxan-5-amine]",> 64
7,"COc1ccc2nccc(CC[C@H]3OC[C@H](NCCc4ccccc4)CO3)c2c1 [AB-0045, 2-(2-(6-methoxyquinolin-4-yl)ethyl)-N-phenethyl-trans-1,3-dioxan-5-amine]",64
8,COc1ccc2nccc(CC[C@H]3OC[C@H](NCc4ccccn4)CO3)c2c1 [AB-0048],8
9,"COc1ccc2nccc(CC[C@H]3OC[C@H](NCc4cccnc4)CO3)c2c1 [AB-0049, 2-(2-(6-methoxyquinolin-4-yl)ethyl)-N-(pyridin-3-ylmethyl)-trans-1,3-dioxan-5-amine]",> 64
10,"COc1ccc2nccc(CC[C@H]3OC[C@H](NCc4cccc(F)c4)CO3)c2c1 [AB-0050, N-(3-fluorobenzyl)-2-(2-(6-methoxyquinolin-4-yl)ethyl)-trans-1,3-dioxan-5-amine]",32
11,"COc1ccc2nccc(CC[C@H]3OC[C@H](NCc4ccc(OC)nc4)CO3)c2c1 [AB-0056, N-((6-methoxypyridin-3-yl)methyl)-2-(2-(6-methoxyquinolin-4-yl)ethyl)-trans-1,3-dioxan-5-amine]",32
12,"COc1ccc2nccc(CC[C@H]3OC[C@H](NCc4ccc(Cl)cn4)CO3)c2c1 [AB-0069, N-((5-chloropyridin-2-yl)methyl)-2-(2-(6-methoxyquinolin-4-yl)ethyl)-trans-1,3-dioxan-5-amine]",8
13,"COc1ccc2nccc(CC[C@H]3OC[C@H](NCc4ccc(C)cn4)CO3)c2c1 [AB-0070, 2-(2-(6-methoxyquinolin-4-yl)ethyl)-N-((5-methylpyridin-2-yl)methyl)-trans-1,3-dioxan-5-amine]",4
14,"COc1ccc2nccc(CC[C@H]3OC[C@H](NC(=O)c4ccccc4)CO3)c2c1 [AB-0075, N-(2-(2-(6-methoxyquinolin-4-yl)ethyl)-trans-1,3-dioxan-5-yl)benzamide]",16
15,"COc1ccc2nccc(CC[C@H]3OC[C@H](NCc4ccc(OC(F)F)cc4)CO3)c2c1 [AB-0084, N-(4-(difluoromethoxy)benzyl)-2-(2-(6-methoxyquinolin-4-yl)ethyl)-trans-1,3-dioxan-5-amine]",4
16,"COc1ccc2nccc(CC[C@H]3OC[C@H](NC(=O)c4ccc5c(c4)OCCO5)CO3)c2c1 [AB-0088, N-(2-(2-(6-methoxyquinolin-4-yl)ethyl)-trans-1,3-dioxan-5-yl)-2,3-dihydrobenzo[b][1,4]dioxine-6-carboxamide]",8
17,"COc1ccc2nccc(CC[C@H]3OC[C@H](NC(=O)c4ccc(Cl)c(Cl)c4)CO3)c2c1 [AB-0089, 3,4-dichloro-N-(2-(2-(6-methoxyquinolin-4-yl)ethyl)-trans-1,3-dioxan-5-yl)benzamide]",≤ 0.5

# Test system: USA 300 strain of MRSA
# Experiment: MIC by broth microdilution, USA 300 strain of MRSA
# Format: cell-based, Staphylococcus aureus
# Details: Staphylococcus aureus, multiple values when multiple MIC assays were conducted, read-out: MIC USA300
# Procedure: Minimum inhibitory concentrations were determined using the quality control strain S. aureus ATCC 29213 (Table 1) by the broth microdilution method according to guidelines of the Clinical and Laboratory Standards Institute (CLSI) (Cockerill, F. R.; et al., 2012, Methods for dilution antimicrobial susceptibility tests for bacteria that grow aerobically; approved standard-ninth edition. MA07-A9. Clinical and Laboratory Standard Institute, Wayne, Pa.). […] MICs for selected compounds were also determined using a USA 300 strain of MRSA (Hidron, et al., Lancet Infect. Dis. 2009, 9:384-392). Vancomycin was used as an additional control.
row,Structure (SMILES),MIC [µg/mL]
1,"COc1ccc2nccc(/C=C/[C@H]3OC[C@H](NCc4ccc(Cl)c(Cl)c4)CO3)c2c1 [AB-0009, N-(3,4-dichlorobenzyl)2-((E)-2-(6-methoxyquinolin-4-yl)vinyl)-trans-1,3-dioxan-5-amine]",0.5
2,"COc1ccc2ncc(=O)n(CC(O)[C@H]3OC[C@H](NCc4ccc5c(c4)OCCO5)CO3)c2c1 (stereo partly drawn) [AB-0076, 1-(2-(5-(((2,3-dihydrobenzo[b][1,4]dioxin-6-yl)methyl)amino)-trans-1,3-dioxan-2-yl)-2-hydroxyethyl)-7-methoxyquinoxalin-2(1H)-one]",1
